“Also recorded” adds a separate entry of the source.
Columns and labels:
[1] = test system: O-GlcNAc levels in different cell lines (COS-7, CHO, SK-N-SH, HepG2, PC12, mouse hybridoma, EMEG32-/-); assay: Western blot of O-GlcNAc levels in various cell lines; type: cell-based; details: 50 μM (100 μM for PC12), 24 h; listed as Ac-5SGlcNAc
Experimental: FIG. 2L. Western blots of cell lysates from different cell lines following no (C), Ac-GlcNAc (G) or Ac-5SGlcNAc (5SG) administration at 50 μM (or 100 μM for PC12 cells) for 24 h. Upper panel, probed with anti-O-GlcNAc antibody (CTD110.6); lower panel, anti-actin antibody. Cell lines used: COS-7 (African green monkey kidney cell line), CHO (Chinese hamster ovary cell line), SK-N-SH (human neuroblastoma cell line), HepG2 (human liver carcinoma cell line), PC12 (rat adrenal medulla pheochromocytoma cell line, which terminally differentiate upon nerve growth factor treatment), mouse hybridoma cell line and EMEG32^−/− (mouse embryonic fibroblasts deficient in glucosamine-6-phosphate acetyltransferase).
Cell culture: Cells were grown in an incubator at 37° C. and 5% CO2 atmosphere. Media and serum were purchased from Invitrogen. COS-7 cells were cultured in Dulbecco's modified Eagle's medium (DMEM) with 5% fetal bovine serum (FBS), and were typically 80-100% confluent prior to experimentation. HepG2, SK-N-SH, and EMEG32^−/− cells were cultured in Dulbecco's modified Eagle's medium (DMEM) with 5% fetal bovine serum (FBS), CHO cells in DMEMF-12 with 5% FBS and PC12 cells in DMEM with 5% FBS and 5% horse serum. Prior to experimentation, PC12 cells were plated at a density of 3-4×10^5 cells10 cm plate, which had been pre-treated with 5 μgcm^2 rat tail collagen (BD Biosciences). […]

[2] = test system: CHO cells; assay: Cell proliferation growth curves over 5 days, CHO cells; type: cell-based, Chinese hamster; details: 50 μM
Experimental: (A) Cell proliferation curves over the course of 5 days for CHO cells following no (circles), 50 μM Ac-GlcNAc (squares) or 50 μM Ac-5SGlcNAc (triangles) treatment. The error bars indicate the deviation from the mean for triplicate measurements. […] Upper panel, probed with anti-O-GlcNAc antibody (CTD110.6); lower panel, probed with anti-actin antibody. (B) Cell proliferation curves over the course of 5 days for EMEG heterozygous mouse embryonic fibroblast cells following no (circles), 50 μM Ac-GlcNAc (squares) or 50 μM Ac-5SGlcNAc (triangles) treatment. The error bars indicate the deviation from the mean for triplicate measurements. […] Upper panel, probed with anti-O-GlcNAc antibody (CTD110.6); lower panel, probed with anti-actin antibody. (C) Western blots of CHO cell lysates following no (C) or Ac-5SGlcNAc administration at 50 μM for 4 days. Probed with (from top to bottom) anti-Spl antibody, anti O-GlcNAc (CTD110.6) antibody and anti-actin antibody. Full blot of the anti-Sp 1 is shown in panel (d). […]
(§1) Cellular responses to Ac-5SGlcNAc (9) treatment and consequent decreases in O-GlcNAc levels were evaluated. […] We quantitatively evaluated cell proliferation and established growth curves over the course of 5 days in both CHO and EMEG32 heterozygous mouse embryonic fibroblast cells treated with 50 μM Ac-5SGlcNAc (9), 50 μM Ac-GlcNAc (G), or vehicle (FIGS. 5A-B).

[3] = test system: Primary CLL cells; assay: Primary CLL cells, proliferation and toxicity with or without cytokine stimulation; type: cell-based; details: 5 days
Experimental: Primary CLL cells, obtained from Dr. David Spaner at the University of Toronto, were tested for their response to Ac-5SGlcNAc (9). Cells were plated at a confluency of 1 million cells/mL, and treated with between 0-250 μM 9, in the presence or absence of cytokine (1000 U/mL IL-2 and 1 μg/mL Resiquimod) stimulation to mimic cancer progression. Cells were observed over the course of 5 days, and harvested after this time into SDS-PAGE loading buffer before being subjected to western blotting.

[4] = test system: cell lines examined; assay: Qualitative observation of cell morphology and proliferation in treated cell lines; type: cell-based; details: at the doses assayed
Experimental: Despite OGA levels continuing to drop and OGT levels rising over 5 days of dosing, O-GlcNAc levels remained low and unchanged after 24 hours (FIG. 2C).
as §1

## CC(=O)NC1C(OC(C)=O)SC(COC(C)=O)C(OC(C)=O)C1OC(C)=O [Compound 9, N-Acetyl-1,3,4,6-tetra-O-acetyl-α-D-5-thio-glucosamine]
[1]
  O-GlcNAc levels in the cell lines tested: Various other cell lines showed equivalent responses; also recorded: near complete loss of O-GlcNAc in the cell lines tested
[2]
  growth rate: indistinguishable from those of Ac-GlcNAc (G) and vehicle treated cells
[3]; 0-250 μM, unstimulated or stimulated
  toxicity to cells: not toxic to either unstimulated or stimulated cells
[3]; 50 μM and higher, IL-2 and Resiquimod stimulation
  proliferation of cytokine-stimulated cells: the proliferation that was obvious in untreated stimulated cells was absent
[4]
  changes in cell morphology or rate of proliferation: no apparent changes in cell morphology or rate of proliferation

— patent publication US20150259371A1, “METHODS AND COMPOUNDS FOR INHIBITING GLYCOSYLTRANSFERASES” (SIMON FRASER UNIVERSITY, priority 2010, published 2015)
